Results taken from ChEMBL document CHEMBL1649181 (2009).

Key:
Format in all cases: functional
[1] = tested on: Mycobacterium tuberculosis; test: Antimicrobial activity against Mycobacterium tuberculosis harboring 83W to Stop mutation in thymidylate synthase A by agar dilution method
[2] = tested on: Mycobacterium tuberculosis; test: Antimicrobial activity against Mycobacterium tuberculosis harboring 11Q to Stop mutation in thymidylate synthase A by agar dilution method
[3] = tested on: Mycobacterium tuberculosis; test: Antimicrobial activity against Mycobacterium tuberculosis harboring 118L to Stop mutation in thymidylate synthase A by agar dilution method
[4] = tested on: Mycobacterium tuberculosis; test: Antimicrobial activity against Mycobacterium tuberculosis harboring 153Y to Stop mutation in thymidylate synthase A by agar dilution method
[5] = tested on: Mycobacterium tuberculosis; test: Antimicrobial activity against Mycobacterium tuberculosis harboring 164Y to Stop mutation in thymidylate synthase A by agar dilution method
[6] = tested on: Mycobacterium tuberculosis; test: Antimicrobial activity against Mycobacterium tuberculosis harboring 251Y to Stop mutation in thymidylate synthase A by agar dilution method
[7] = tested on: Mycobacterium tuberculosis; test: Antimicrobial activity against Mycobacterium tuberculosis harboring 264Stop to R mutation in thymidylate synthase A by agar dilution method
[8] = tested on: Mycobacterium tuberculosis; test: Antimicrobial activity against Mycobacterium tuberculosis harboring 127R to L mutation in thymidylate synthase A by agar dilution method
[9] = tested on: Mycobacterium tuberculosis; test: Antimicrobial activity against Mycobacterium tuberculosis harboring 143L to P mutation in thymidylate synthase A by agar dilution method
[10] = tested on: Mycobacterium tuberculosis; test: Antimicrobial activity against Mycobacterium tuberculosis harboring 146C to R mutation in thymidylate synthase A by agar dilution method
[11] = tested on: Mycobacterium tuberculosis; test: Antimicrobial activity against Mycobacterium tuberculosis harboring 172L to P mutation in thymidylate synthase A by agar dilution method
[12] = tested on: Mycobacterium tuberculosis; test: Antimicrobial activity against Mycobacterium tuberculosis harboring 182A to P mutation in thymidylate synthase A by agar dilution method
[13] = tested on: Mycobacterium tuberculosis; test: Antimicrobial activity against Mycobacterium tuberculosis harboring 259A to P mutation in thymidylate synthase A by agar dilution method
[14] = tested on: Mycobacterium tuberculosis; test: Antimicrobial activity against Mycobacterium tuberculosis harboring 261V to G mutation in thymidylate synthase A by agar dilution method
[15] = tested on: Mycobacterium tuberculosis; test: Antimicrobial activity against Mycobacterium tuberculosis harboring 15G to R mutation in thymidylate synthase A by agar dilution method
[16] = tested on: Mycobacterium tuberculosis; test: Antimicrobial activity against Mycobacterium tuberculosis harboring 183L to V mutation in thymidylate synthase A by agar dilution method
[17] = tested on: Mycobacterium tuberculosis; test: Antimicrobial activity against Mycobacterium tuberculosis harboring 191Q to R mutation in thymidylate synthase A by agar dilution method
[18] = tested on: Mycobacterium tuberculosis; test: Antimicrobial activity against Mycobacterium tuberculosis harboring 202T to A mutation in thymidylate synthase A by agar dilution method

Measured: MIC

Nc1ccc(C(=O)O)c(O)c1 [AMINOSALICYLIC ACID]
>8 µg/mL: [15]
<128 µg/mL: [18]
64 µg/mL: [13]
<64 µg/mL: [16] | [17]
>128 µg/mL: all other assays above
